Measurements reported in patent US6174881A, “Hydroxymethylimidazodiazepines and their esters” (Hoffman-La Roche Inc., priority 1995, dated 2001).

Assays:
[1] = target: central benzodiazepine receptors; test: inhibition of the binding of tritiated flumazenil to the specific benzodiazepine receptors in the cortex of rats; settings: 50% inhibition of specific binding of tritiated flumazenil, rat cortex; read-out: Affinity to benzodiazepine receptors IC50
Procedure: The affinity of compounds of general formula I to the central benzodiazepine receptors was established in vitro according to the methods described in Nature 294, 763-765 (1981) and J. Neurochemistry 37, 714-722 (1981). According to these methods the inhibition of the binding of tritiated flumazenil to the specific benzodiazepine receptors in the cortex of rats by the respective test substances is determined. The IC50 ("50% inhibiting concentration") denotes that concentration of the respective test substance which brings about a 50 percent inhibition of the specific binding of tritiated flumazenil to the specific benzodiazepine receptors in the cortex of rats.

[2] = tested on: mice; test: rotating rod test in mice (sedative/muscle relaxant properties), i.v.; format: in vivo, mouse; settings: for ED50: Mus musculus, iv
Procedure: The sedative/muscle relaxant properties of the compounds of formula II in accordance with the invention can be determined, for example, in the rotating rod test. Mice weighing 19-21 g are used for this test. They have free access to feed and drinking water up to 1 hour prior to the beginning of the test. They are brought into the test laboratory at least 30 minutes prior to the test. In the rotating rod test the animals are placed on a horizontally arranged, smooth metal rod having a diameter of 3 cm., which is rotated at 2 revolutions per minute. Initially, the animals are given the opportunity of familiarizing themselves with the test situation for 30 seconds. Subsequently, those animals which succeed in remaining on the rod for at least 1 minute are selected. The test preparations are then administered intraveneously to these animals in different dosages. At various points in time it is then determined whether the animals are able to remain for a minimum period on the rod (minimum period: 10 seconds, 1 minute from 5 minutes after administration). That dosage at which 50% of the animals are capable of remaining on the rod is determined (ED50).

[3] = 15 s, minimum time 10 sec, 15 sec after administration
[4] = 0.5 min, minimum time 10 sec, 30 sec after administration
[5] = 1 min, minimum time 10 sec, 60 sec after administration
[6] = 2 min, minimum time 10 sec, 2 min after administration
[7] = 5 min, minimum time 60 sec, 5 min after administration
[8] = 0.25 h, minimum time 60 sec, 15 min after administration
[9] = 0.5 h, minimum time 60 sec, 30 min after administration
[10] = 1 h, minimum time 60 sec, 60 min after administration

“2-Chloro-4-(2-fluorophenyl)-8,9-dihydro-6H-imidazo[1,2-a]thieno[3,2-f][1,4]diazepine-8-methanol” was tested, and the IC50 [1] was 2.6 nM, the “Rotating rod test, ED50” value ([2]; minimum time 10 sec, 15 sec after administration, 0.25 min) was 0.5 mg/kg and the “Rotating rod test, ED50” value ([2]; minimum time 10 sec, 30 sec after administration, 0.5 min) was 0,7 mg/kg. The “Rotating rod test, ED50” value ([2]; minimum time 10 sec, 60 sec after administration, 1 min) was 0.6 mg/kg, the “Rotating rod test, ED50” value ([2]; minimum time 10 sec, 2 min after administration) was 1.2 mg/kg and the “Rotating rod test, ED50” value ([2]; minimum time 60 sec, 5 min after administration) was 2.3 mg/kg. The “Rotating rod test, ED50” value ([2]; minimum time 60 sec, 15 min after administration) was 5.3 mg/kg, the “Rotating rod test, ED50” value ([2]; minimum time 60 sec, 30 min after administration) was at least 10 mg/kg and the “Rotating rod test, ED50” value ([2]; minimum time 60 sec, 60 min after administration) was over 10 mg/kg.
For CC(=O)OCc1cn2c(n1)CN=C(c1ccccc1F)c1cc(Cl)sc1-2 [B], the IC50 [1] was 6 nM, the ED50 [2, 3] was 0.6 mg/kg and the ED50 [2, 4] was 0.7 mg/kg. The ED50 [2, 5] was 1.2 mg/kg, the ED50 [2, 6] was 1 mg/kg and the ED50 [2, 7] was at least 10 mg/kg. It also gave an ED50 [2, 8] of at least 10 mg/kg, an ED50 [2, 9] of at least 10 mg/kg and an ED50 [2, 10] of over 10 mg/kg.
For OCc1cn2c(n1)CN=C(c1ccccc1F)c1cc(Cl)ccc1-2 [C, 8-Chloro-6-(2-fluorophenyl)-4H-imidazo[1,2-a]benzodiazepine-2-methanol], the IC50 [1] was 1.7 nM, the ED50 [2, 3] was 0.1 mg/kg and the ED50 [2, 4] was 0.3 mg/kg. It also gave an ED50 [2, 5] of 0.3 mg/kg, an ED50 [2, 6] of at least 10 mg/kg and an ED50 [2, 7] of 0.8 mg/kg. It also gave an ED50 [2, 8] of 0.4 mg/kg, an ED50 [2, 9] of 1.1 mg/kg and an ED50 [2, 10] of at least 10 mg/kg.
C=CCNCc1c(CO)nc2n1-c1ccc(Cl)cc1C(c1ccccc1F)=NC2 [D, 1-Allylaminomethyl-8-chloro-6-(2-fluorophenyl)-4H-imidazo[1,2-a][1,4]benzodiazepine-2-methanol] showed an IC50 [1] of 5.6 nM, an ED50 [2, 3] of 2.5 mg/kg and an ED50 [2, 4] of 3 mg/kg. For the same compound, the ED50 [2, 5] was 3.2 mg/kg, the ED50 [2, 6] was 3.2 mg/kg and the ED50 [2, 7] was 2.1 mg/kg. It also gave an ED50 [2, 8] of 1.8 mg/kg, an ED50 [2, 9] of at least 10 mg/kg and an ED50 [2, 10] of over 10 mg/kg.
OCc1cn2c(n1)CN=C(c1ccccc1Cl)c1cc(Cl)ccc1-2 [E, 8-Chloro-6-(2-chlorophenyl)-4H-imidazo[1,2-a][1,4]benzodiazepine-2 methanol] was tested, and the IC50 [1] was 1.2 nM, the ED50 [2, 3] was at most 0.32 mg/kg and the ED50 [2, 4] was 0.4 mg/kg. The ED50 [2, 5] was 0.5 mg/kg, the ED50 [2, 6] was 3.2 mg/kg and the ED50 [2, 7] was 0.9 mg/kg. The ED50 [2, 8] was 0.5 mg/kg, the ED50 [2, 9] was at least 3.2 mg/kg and the ED50 [2, 10] was at least 3.2 mg/kg.
For OCc1cn2c(n1)CN=C(c1ccccc1)c1cc(C(F)(F)F)ccc1-2 [F, 8-Trifluoromethyl-6-phenyl-4H-imidazo[1,2-a][1,4]benzodiazepine-2 methanol], the IC50 [1] was 12 nM, the ED50 [2, 3] was 1 mg/kg and the ED50 [2, 4] was 1.1 mg/kg. For the same compound, the ED50 [2, 5] was 1.1 mg/kg, the ED50 [2, 6] was over 3.2 mg/kg and the ED50 [2, 7] was 1 mg/kg. For the same compound, the ED50 [2, 8] was 0.9 mg/kg, the ED50 [2, 9] was 1.1 mg/kg and the ED50 [2, 10] was 1.8 mg/kg.
For O=[N+]([O-])c1ccc2c(c1)C(c1ccccc1F)=NCc1nc(CO)cn1-2 [G, 6-(2-Fluorophenyl)-8-nitro-4H-imidazo[1,2-a][1,4]benzodiazepine-2 methanol], the IC50 [1] was 2.3 nM, the ED50 [2, 3] was 0.2 mg/kg and the ED50 [2, 4] was 0.2 mg/kg. The ED50 [2, 5] was 0.3 mg/kg, the ED50 [2, 6] was 0.3 mg/kg and the ED50 [2, 7] was 0.1 mg/kg. It also gave an ED50 [2, 8] of 0.2 mg/kg, an ED50 [2, 9] of 0.2 mg/kg and an ED50 [2, 10] of at least 1 mg/kg.
Compound OCc1cn2c(n1)CN=C(c1ccccc1F)c1cc(I)ccc1-2 [H, 6-(2-Fluorophenyl)-8-iodo-4H-imidazo[1,2-a][1,4]benzodiazepine-2 methanol] has an IC50 [1] of 2.07 nM, an ED50 [2, 3] of 0.1 mg/kg and an ED50 [2, 4] of 0.06 mg/kg. It also gave an ED50 [2, 5] of 0.09 mg/kg, an ED50 [2, 6] of 0.1 mg/kg and an ED50 [2, 7] of 0.1 mg/kg. For the same compound, the ED50 [2, 8] was 0.1 mg/kg, the ED50 [2, 9] was at least 1 mg/kg and the ED50 [2, 10] was over 1 mg/kg.
For OCc1cn2c(n1)CN=C(c1ccccn1)c1cc(Br)ccc1-2 [I, 8-Bromo-6-(2-pyridyl)-4H-imidazo[1,2-a][1,4]benzodiazepine-2 methanol], the IC50 [1] was 40 nM, the ED50 [2, 3] was 1.5 mg/kg and the ED50 [2, 4] was 2 mg/kg. The ED50 [2, 5] was 3 mg/kg, the ED50 [2, 6] was over 10 mg/kg and the ED50 [2, 7] was 1.4 mg/kg. The ED50 [2, 8] was 1.8 mg/kg, the ED50 [2, 9] was 3 mg/kg and the ED50 [2, 10] was at least 10 mg/kg.
